US20220220106A1, “QUINOLINE COMPOUNDS AND PHARMACEUTICAL COMPOSITIONS AND USES THEREOF” (Academy of Military Medical Sciences, priority 2019, published 2022)

How the values were obtained:
Type in all cases: cell-based
[1] = biological target: T1, mTORC1 (Homo sapiens, UniProt P42345); test: Western blot, phosphorylation of Thr389 of p70S6K1 in RD cells (mTORC1 inhibition); conditions: 20 μM, 2 hours, Western blot (FIG. 1)
T1 construct: endogenous in cells; host or cells: RD cells
Description: (§1) In order to test the inhibitory activity of the synthesized compounds on the two mTOR complexes, the inhibitory activity experiments of mTORC1 and mTORC2 were carried out. Since mTORC1 and mTORC2 exerted their function by activating the phosphorylation of downstream substrates, the inhibitory activity of the compounds on mTORC1 and mTORC2 could be determined by detecting the phosphorylation levels of the Thr389 site of mTORC1 downstream substrate p70S6K1 and the Ser473 site of mTORC2 downstream substrate Akt.
(§2) Pretreatment of Compound:
(§3) (1) RD cells were cultured in DMEM medium containing 10% FBS and 1×PS (penicillin and streptomycin were at concentrations 100 IU and 100 μg/mL, respectively) at 37° C. and 5% CO2.
(§4) (2) The RD cells (5×10^5 cells/2 mL medium) were inoculated into a 6-well plate and incubated at 37° C. and 5% CO2 for 24 hours.
(§5) (3) The cells were washed once with PBS, and the cells were cultured in serum-free medium without nutrients overnight.
(§6) (4) Formulation of compounds: […]
(§7) Preparation of insulin medium: Insulin was diluted in DMEM medium containing 10% FBS and 1×PS so that the final concentration of insulin was 167 nM.
(§8) Pretreatment of compound to be tested: The compound was dissolved in DMSO so that the concentration of the test compound was 20 mM, and the compound was diluted in 167 nM insulin medium to reach a concentration of 20 μM.
(§9) Preparation of rapamycin solution: Rapamycin was dissolved in DMSO to a concentration of 10 mM, and the rapamycin was diluted in 167 nM insulin medium to reach a concentration of 20 μM.
(§10) (5) The serum-free medium in each well was removed.
(§11) (6) 2 mL of complete medium containing DMSO was added to each well as a control carrier. The final concentration of DMSO was 0.2%.
(§12) (7) 2 mL of 20 μM rapamycin solution and 20 μM the compound to be tested were added to the designated wells, respectively. The final concentration of DMSO was 0.2%.
(§13) (8) The cells were incubated for 2 hours at 37° C. and 5% CO2.
(§14) Protein extraction and concentration determination:
(§15) (1) The cells were washed once with refrigerated PBS, and then the PBS was discarded.
(§16) (2) 150 μL of cell extraction buffer (RIPA, […], catalog number: C1053) was transferred into each well to lyse the cells, and then the resulting cell solution were incubated on ice for 30 minutes.
(§17) (3) Centrifugation was performed at 14000 rpm (13000× g) for 30 minutes at 4° C.
(§18) (4) The supernatant was transferred into a new eppendorf tube, and the cell lysate was stored at −80° C. before testing.
(§19) (5) The protein concentration was determined by BCA method.
(§20) Preparation of Buffer Solutions:
(§21) (1) 100× Protease inhibitor (Beyotime, catalog number: P1005): 1 mL of redistilled water was added to the protease inhibitor and stirred gently until the solid was completely dissolved.
(§22) (2) Lysis Buffer: […] of 100× protease inhibitor and 2× phosphatase inhibitor Cocktails PhosSTOP (Beyotime, catalog number: P1082) were added to 100 mL of the cell extract, and stirred gently until it was completely dissolved.
(§23) (3) Electrophoresis Running Buffer:
(§24) 10×MOPS buffer: 52.33 g of MOPS, 30.29 g of Tris base, 10 mL of 0.5 mol/L EDTA (pH 8.5) and 5 g of SDS was dissolved in 400 mL of redistilled water, stirred to dissolve, and the pH was adjusted to 7.5, then redistilled water was added again to reach a volume of 500 mL; 1×MOPS: 100 mL of 10×MOPS was diluted with redistilled water to 1000 mL.
(§25) (4) 1× Transfer Buffer: […] of 10× transfer buffer (144 g of glucine, 30.3 g of trisbase, and distilled water were mixed to reach a volume of 1 L) and 400 mL of methanol were dissolved in 1500 mL of redistilled water, and then the redistilled water was added to reach a volume of 2000 mL. […]

[2] = tested on: RD cells; test: Detection of cytotoxicity in RD cells (CellTiter-Glo); conditions: 4 days, CellTiter-Glo, median toxic dose
Outline: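 RD cells (1*10^5/mL) cultured 4 days at 37 °C with 10 compound concentrations from 3-fold dilution of a 400 μM pretreatment solution, final being 0.5 times that. Viability by CellTiter-Glo luminescence versus cell control; TD50 from S-curve fit; SI=TD50/IC50.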

[3] = biological target: T2, mTORC2 (Homo sapiens, UniProt P42345); test: Western blot, phosphorylation of Ser473 of Akt in RD cells (mTORC2 inhibition); conditions: 20 μM, 2 hours, Western blot (FIG. 1)
T2 construct: endogenous in cells; host or cells: RD cells
Description: as §1, §2, §3, §4, §5, §6, §7, §8, §9, §10, §11, §12, §13, §14, §15, §16, §17, §18, §19, §20, §21, §22, §23, §24, §25

SMILES	p70 phosphorylation expression level [1]	TD50 [2]	phosphorylation expression level of Akt [3]
Nc1cccc(Nc2ccc3ncc4ccc(=O)n(-c5cccc(C(F)(F)F)c5)c4c3c2)n1 [HTL-6-12, 9-[2-(6-aminopyridyl)]imino-2-oxo-1-[3-(trifluoromethyl)phenyl]-1,2-dihydrobenzo[h][1,6]naphthyridine]	significantly down-regulate	5.19 ± 0.56 µM	significantly down-regulate
COc1ccc(-c2ccc3ncc4ccc(=O)n(-c5cccc(C(F)(F)F)c5)c4c3c2)cn1 [HTL-7-03, 9-[3-(6-methoxy)pyridyl]-2-oxo-1-[3-(trifluoromethyl)phenyl]-1,2-dihydrobenzo[h][1,6]naphthyridine]	significantly down-regulate	0.13 ± 0.03 µM	significantly down-regulate
Cc1ncccc1-c1ccc2ncc3ccc(=O)n(-c4cccc(C(F)(F)F)c4)c3c2c1 [HTL-6-49, 9-[3-(2-methyl)pyridyl]-2-oxo-1-[3-(trifluoromethyl)phenyl]-1,2-dihydrobenzo[h][1,6]naphthyridine]	significantly down-regulate	0.07 ± 0.00 µM	significantly down-regulate
CCCC(=O)Nc1ccc(-c2ccc3ncc4ccc(=O)n(-c5cccc(C(F)(F)F)c5)c4c3c2)cn1 [HTL-7-05, 9-[3-(6-butyrylamino)pyridyl]-2-oxo-1-[3-(trifluoromethyl)phenyl]-1,2-dihydrobenzo[h][1,6]naphthyridine]	significantly down-regulate	0.75 ± 0.36 µM	significantly down-regulate
O=C(Cc1ccccc1)Nc1ccc(-c2ccc3ncc4ccc(=O)n(-c5cccc(C(F)(F)F)c5)c4c3c2)cn1 [HTL-7-10, 9-[3-(6-phenylacetylamino)pyridyl]-2-oxo-1-[3-(trifluoromethyl)phenyl]-1,2-dihydrobenzo[h][1,6]naphthyridine]	significantly down-regulate	0.74 ± 0.72 µM	significantly down-regulate
O=c1ccc2cnc3ccc(-c4ccc5ncccc5c4)cc3c2n1-c1cccc(C(F)(F)F)c1 [HTL-6-47, 9-(6-quinolyl)-2-oxo-1-[3-(trifluoromethyl)phenyl]-1,2-dihydrobenzo[h][1,6]naphthyridine]	significantly down-regulate	0.03 ± 0.02 µM	significantly down-regulate
NC(=O)/C=C/c1ccc2ncc3oc(=O)n(-c4cccc(C(F)(F)F)c4)c3c2c1 [HTL-6-30, (E)-8-(2-carbamoyl-vinyl)-1-[3-(trifluoromethyl)phenyl]oxazolo[5,4-c]quinolin-2(1H)-one]	significantly down-regulate	7 ± 0.09 µM	–
CCC(=O)Nc1ccc(-c2ccc3ncc4ccc(=O)n(-c5cccc(C(F)(F)F)c5)c4c3c2)cn1 [HTL-6-45, 9-[3-(6-propionylamino)pyridyl]-2-oxo-1-[3-(trifluoromethyl)phenyl]-1,2-dihydrobenzo[h][1,6]naphthyridine]	significantly down-regulate	0.04 ± 0.02 µM	significantly down-regulate
O=c1ccc2cnc3ccc(C4=CCC5(CC4)OCCO5)cc3c2n1-c1cccc(C(F)(F)F)c1 [HTL-7-13, 9-(1,4-dioxa-spiro[4.5]dec-7-en-8-yl)-2-oxo-1-[3-(trifluoromethyl)phenyl]-1,2-dihydrobenzo[h][1,6]naphthyridine]	significantly down-regulate	200 ± 0 µM	significantly down-regulate
CC(=O)/C=C/c1cnc2ccc(-c3ccc(C)nc3)cc2c1Nc1cccc(C(F)(F)F)c1 [HTL-2-38, (E)-6-[3-(6-methyl)pyridyl]-4-[3-(trifluoromethyl)phenyl]aminoquinoline-3-butenone]	significantly down-regulate	8.71 ± 1.53 µM	–
O=c1ccc2cnc3ccc(-c4cc[nH]n4)cc3c2n1-c1cccc(C(F)(F)F)c1 [HTL-6-50, 9-[(1H)-3-pyrazolyl]-2-oxo-1-[3-(trifluoromethyl)phenyl]-1,2-dihydrobenzo[h][1,6]naphthyridine]	significantly down-regulate	0.17 ± 0.05 µM	significantly down-regulate
CC(C)(C)OC(=O)Nc1ccc(-c2ccc3ncc4ccc(=O)n(-c5cccc(C(F)(F)F)c5)c4c3c2)cn1 [HTL-7-21, 9-[3-(6-tert-butoxycarbonylamino)pyridyl]-2-oxo-1-[3-(trifluoromethyl)phenyl]-1,2-dihydrobenzo[h][1,6]naphthyridine]	significantly down-regulate	0.69 ± 0.50 µM	significantly down-regulate
NC(=O)c1ccc(-c2ccc3ncc4oc(=O)n(-c5cccc(C(F)(F)F)c5)c4c3c2)cc1 [HTL-5-21, 8-(4-carbamoyl)phenyl-1-[3-(trifluoromethyl)phenyl]oxazolo[5,4-c]quinolin-2(1H)-one]	significantly down-regulate	6.95 ± 1.23 µM	significantly down-regulate
CN(C)c1ccc(-c2ccc3ncc4ccc(=O)n(-c5cccc(C(F)(F)F)c5)c4c3c2)cn1 [HTL-7-16, 9-[3-(6-N,N-dimethyl)pyridyl]-2-oxo-1-[3-(trifluoromethyl)phenyl]-1,2-dihydrobenzo[h][1,6]naphthyridine]	significantly down-regulate	0.17 ± 0.06 µM	significantly down-regulate
O=C(Nc1ccc(-c2ccc3ncc4ccc(=O)n(-c5cccc(C(F)(F)F)c5)c4c3c2)cn1)Oc1ccccc1 [HTL-7-15, 9-[3-(6-phenoxyamido)pyridyl]-2-oxo-1-[3-(trifluoromethyl)phenyl]-1,2-dihydrobenzo[h][1,6]naphthyridine]	significantly down-regulate	0.20 ± 0.09 µM	significantly down-regulate
O=c1ccc2cnc3ccc(-c4ccc(N5CCCC5)nc4)cc3c2n1-c1cccc(C(F)(F)F)c1 [HTL-7-20, 9-[3-(6-pyrrolidinyl)pyridyl]-2-oxo-1-[3-(trifluoromethyl)phenyl]-1,2-dihydrobenzo[h][1,6]naphthyridine]	significantly down-regulate	1.79 ± 0.67 µM	significantly down-regulate
COc1ccc(CC(=O)Nc2ccc(-c3ccc4ncc5ccc(=O)n(-c6cccc(C(F)(F)F)c6)c5c4c3)cn2)cc1 [HTL-7-11, 9-{3-[6-(4-methoxy)phenylacetylamino]pyridyl}-2-oxo-1-[3-(trifluoromethyl)phenyl]-1,2-dihydrobenzo[h][1,6]naphthyridine]	significantly down-regulate	0.19 ± 0.10 µM	significantly down-regulate
